Measurements: patent US6946480B2, “Glutaminyl based DPIV inhibitors” (priority 2002, dated 2005)

Experiments:
[1] = biological target: T1, plasma DPIV activity (Rattus norvegicus, UniProt P14740); experiment: Plasma DPIV inhibiting activity after intravasal and oral administration to Wistar rats; format: in vivo; settings: 100 mg/kg b.w. vs. placebo, oral and intra-vasal administration
T1 construct: The assay mixture for determination of plasma DPIV activity consisted of 80 μl reagent and 20 μl plasma sample; from tissue; host or cells: plasma of male Wistar rats
Procedure: Male Wistar rats (Shoe: Wist(Sho)) with a body weight ranging between 250 and 350 g were purchased from Tierzucht Schönwalde (Schönwalde, Germany).
Animals were single-caged under conventional conditions with controlled temperature (22±2° C.) on a 12/12 hours light/dark cycle (light on at 06:00 AM). Standard pelleted chow (ssniff® Soest, Germany) and tap water acidified with HCl were allowed ad libitum.
After ≧one week of adaptation at the housing conditions, catheters were implanted into the carotid artery of Wistar rats under general anaesthesia (i.p. injection of 0.25 ml/kg b.w. Rompun® [2%], BayerVital, Germany and 0.5 ml/kg b.w. Ketamin 10, Atarost GmbH & Co., Twistringen, Germany). The animals were allowed to recover for one week. The catheters were flushed with heparin-saline (100 IU/ml) three times per week. In case of catheter dysfunction, a second catheter was inserted into the contra-lateral carotid artery of the respective rat. After one week of recovery from surgery, this animal was reintegrated into the study. In case of dysfunction of the second catheter, the animal was withdrawn from the study. […]
Statistical evaluations and graphics were performed with PRISM® 3.02 (GraphPad Software, Inc.). All parameters were analysed in a descriptive manner including mean and SD.

[2] = biological target: T2, Prolidase from porcine kidney (Sus scrofa, UniProt A0A5G2QQV1); experiment: Cross reacting enzymes - prolidase; format: biochemical
T2 sequence (A0A5G2QQV1 1-463): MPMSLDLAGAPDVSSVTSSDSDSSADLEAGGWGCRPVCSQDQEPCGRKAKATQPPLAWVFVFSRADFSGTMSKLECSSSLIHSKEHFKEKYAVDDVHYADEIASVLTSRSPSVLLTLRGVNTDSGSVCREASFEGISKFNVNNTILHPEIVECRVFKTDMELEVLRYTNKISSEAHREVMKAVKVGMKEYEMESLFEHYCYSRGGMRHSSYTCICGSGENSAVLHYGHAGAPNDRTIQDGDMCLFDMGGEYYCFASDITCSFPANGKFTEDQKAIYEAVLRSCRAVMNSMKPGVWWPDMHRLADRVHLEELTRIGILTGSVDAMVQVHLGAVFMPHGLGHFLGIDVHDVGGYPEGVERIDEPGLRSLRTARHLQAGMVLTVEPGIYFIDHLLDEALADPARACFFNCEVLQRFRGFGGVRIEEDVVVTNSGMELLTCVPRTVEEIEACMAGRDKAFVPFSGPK
Procedure: Glutaminyl pyrrolidine or glutaminyl thiazolidine were tested for their cross reacting potency against dipeptidyl peptidase I, prolyl oligopeptidase and prolidase.
Prolidase (EC 3.4.13.9) was first described by Bergmann & Fruton (Bergmann, M. & Fruton, J S, 1937, J. Biol. Chem. 189-202). Prolidase releases the N-terminal amino acid from Xaa-Pro dipeptides and has a pH optimum between 6 and 9.
Prolidase from porcine kidney (ICN Biomedicals, Eschwege, Germany). was solved (1 mg/ml) in assay buffer (20 mM NH4(CH3COO)2, 3 mM MnCl2, pH 7.6). In order to get a fully active enzyme the solution was incubated for 60 min at room temperature.
450 μl glutaminyl pyrrolidine or glutaminyl thiazolidine in an concentration range of 5*10^−3 M-5*10^−7 M were admixed with 500 μl buffer solution (20 mM NH4(CH3COO)2, pH 7.6) and 250 μl lle-Pro-OH (0.5 mM in the assay mixture). The assay mixture was pre-incubated at 30° C. for 5 min After pre-incubation, 75 μl Prolidase (1:10 diluted in assay buffer) were added and measurement was performed at 30° C. and λ=220 nm for 20 min using a UV/Vis photometer, UV1 (Thermo Spectronic, Cambridge, UK).
The IC50-values were calculated using Graphit 4.0.15 (Erithacus Software, Ltd., UK).

T1 sequence (P14740 37-767 limits assumed): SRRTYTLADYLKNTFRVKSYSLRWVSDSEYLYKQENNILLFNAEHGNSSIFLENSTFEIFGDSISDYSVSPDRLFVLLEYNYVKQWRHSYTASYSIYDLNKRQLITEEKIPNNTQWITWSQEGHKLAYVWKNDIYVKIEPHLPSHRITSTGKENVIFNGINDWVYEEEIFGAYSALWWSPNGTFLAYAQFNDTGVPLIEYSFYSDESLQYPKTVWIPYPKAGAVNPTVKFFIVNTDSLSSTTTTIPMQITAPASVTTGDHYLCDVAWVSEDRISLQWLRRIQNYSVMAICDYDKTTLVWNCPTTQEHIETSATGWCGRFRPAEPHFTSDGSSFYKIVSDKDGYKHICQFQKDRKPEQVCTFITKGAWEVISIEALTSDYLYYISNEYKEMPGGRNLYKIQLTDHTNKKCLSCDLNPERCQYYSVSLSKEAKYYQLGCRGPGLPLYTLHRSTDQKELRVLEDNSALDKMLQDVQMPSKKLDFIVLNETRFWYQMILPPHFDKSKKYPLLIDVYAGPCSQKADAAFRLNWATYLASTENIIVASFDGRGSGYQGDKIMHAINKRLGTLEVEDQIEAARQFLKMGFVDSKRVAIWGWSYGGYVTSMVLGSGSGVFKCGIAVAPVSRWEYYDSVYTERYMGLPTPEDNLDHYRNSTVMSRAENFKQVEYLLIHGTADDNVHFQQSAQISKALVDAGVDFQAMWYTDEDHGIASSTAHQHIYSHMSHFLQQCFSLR

inhibition of plasma DPIV activity in vivo [1]: inhibited plasma DPIV activity
efficacy against prolidase compared to DPIV [2]: marked lower efficacy
Structure (SMILES): NC(=O)CC[C@H](N)C(=O)N1CCCC1 [glutaminyl pyrrolidine]
